From US20240360114A1 (SIRONAX LTD., priority 2021, published 2024) come the findings set out here.

pEC50: −log10 of the molar value.

The test system of one assay is HT-1080 cells. The assay can be described thus: HT-1080 cell viability assay (ferroptosis induced by RSL3, Cell Titer-Glo). It is filed as cell-based. The conditions noted are these: Homo sapiens, HT-1080, 20 h, ferroptosis inducer RSL3, 20 hours, ferroptosis inhibitory activity, Table 2. The protocol: Example 2. Determination of EC50 Values in HT-1080 Cell Viability Assay
HT-1080 (ATCC, CCL-121) cells (6000 in 100 μl) were seeded in 96-well plates (Corning) and cultured in a 37° C. incubator with a humidified atmosphere of 5% CO2 for overnight. Cells were then treated with ferroptosis inducer RSL3 (TargetMol) and a 3-fold, 10-point serial dilution series of compounds with 1.1 μM as the highest concentration, for 20 hours. Cell viability was assessed using the Cell Titer-Glo Kit (Promega). The luminescence intensity was measured with a microplate reader (Envision, PerkinElmer), and cell viability was calculated by normalizing the data to untreated controls. The EC50 values of the compounds (e.g., Compounds 1-573 and 574-661) were calculated in GraphPad Prism (GraphPad Software, Inc., San Diego, CA, USA). The curves were fitted using a non-linear regression model with a sigmoidal dose response.
For the compound `NC1CCC(Nc2cnc(N3CCC(C(F)(F)F)CC3)nc2)CC1` (stereo not drawn) [Compound 42, N1-(2-(4-(trifluoromethyl)piperidin-1-yl)pyrimidin-5-yl)cyclohexane-1,4-diamine], the pEC50 was 7.00 to 10.00.
Same read-out and setting: for `CC1CN(c2ccc(NC3CCC(N)CC3)cc2)CC(C)O1` (stereo not drawn) [Compound 450, N1-(4-(2,6-dimethylmorpholino)phenyl)cyclohexane-1,4-diamine] the value was 6.00 to 7.00; for `Cc1cc(NC2CC(C(=O)NN)C2)ccc1N1CCC(C)CC1` (stereo not drawn) [Compound 489], 7.00 to 10.00.
Same read-out and setting: for `CC1(C)CCC(c2ccc(NC3CCC(CCNC(N)=O)CC3)cc2)CC1` (stereo not drawn) [Compound 243] the value was 7.00 to 10.00; for `c1cc(C2CCCCC2)ccc1NC1CCNC1` (stereo not drawn) [Compound 108, N-(4-cyclohexylphenyl)pyrrolidin-3-amine], 6.00 to 7.00.
Same read-out and setting: for `CN(C)C1CCC(Nc2ccc(N3CCC(C(F)(F)F)CC3)cc2)CC1` (stereo not drawn) [Compound 8, N1,N1-dimethyl-N4-(4-(4-(trifluoromethyl)piperidin-1-yl)phenyl)cyclohexane-1,4-diamine] the value was 7.00 to 10.00; for `N[C@H]1CC[C@H](CNc2ccc(N3CCC(C(F)(F)F)CC3)cc2)CC1` [Compound 356, N-(((1r,4r)-4-aminocyclohexyl)methyl)-4-(4-(trifluoromethyl)piperidin-1-yl)aniline], 7.00 to 10.00; for `COc1cc(N2C[C@@H](C)O[C@@H](C)C2)ncc1NC1CC2(CC(N)C2)C1` (stereo partly drawn) [Compound 501, N^2-(6-((2R,6S)-2,6-dimethylmorpholino)-4-methoxypyridin-3-yl)spiro[3.3]heptane-2,6-diamine], 5.00 to 6.00.
`CC1CN(c2ccc3cc(NC4CC5(CC(N)C5)C4)ccc3n2)CC(C)N1CC(F)(F)F` (stereo not drawn) [Compound 567, N2-(2-(3,5-dimethyl-4-(2,2,2-trifluoroethyl)piperazin-1-yl)quinolin-6-yl)spiro-[3.3]heptane-2,6-diamine] showed a negative-log EC50 (pEC50) of 7.00 to 10.00.
Same read-out and setting: for `O=C1NC[C@H](C(=O)NCC2CCC(Nc3ccc(C4CCCCC4)cc3)CC2)N1` (single isomer, unassigned) [Compound 117A] the value was 7.00 to 10.00.
`Cc1nc(N2CCC3(CCCCO3)CC2)ccc1NC1CC2(CC(N)C2)C1` (stereo not drawn) [Compound 509, N2-(2-methyl-6-(1-oxa-9-azaspiro [5.5]undecan-9-yl)pyridin-3-yl)spiro[3.3]heptane-2,6-diamine] had a pEC50 of 7.00 to 10.00.
For `Cc1ccc(NC2CCC(N)CC2)cc1C` (stereo not drawn) [Compound 240, N1-(3,4-dimethylphenyl)cyclohexane-1,4-diamine], the pEC50 was 6.00 to 7.00.
Still for that read-out and setting: for `NCC1CCC(Nc2ccc(C3CCCCC3)cc2)CC1` (single isomer, unassigned) [Compound 82A, N-(4-(aminomethyl)cyclohexyl)-4-cyclohexylaniline] the value was 7.00 to 10.00; for `Cc1nc(N2CCC(C)(C)CC2)ccc1NC1CCC(CN)CC1` (stereo not drawn) [Compound 32A, N-(4-(aminomethyl)cyclohexyl)-6-(4,4-dimethylpiperidin-1-yl)-2-methylpyridin-3-amine], 7.00 to 10.00.
Same read-out and setting: for `CC1(C)CCC(c2ccc(NC3CCC(NC(N)=O)CC3)cc2)CC1` (stereo not drawn) [Compound 248, 1-(4-((4-(4,4-dimethylcyclohexyl)phenyl)amino)cyclohexyl)urea] the value was 6.00 to 7.00; for `Cc1nc(N2CC(C)N(C(=O)C(F)(F)F)C(C)C2)ccc1NC1CC2(CC(N)C2)C1` (stereo not drawn) [Compound 554, 1-(4-(5-((6-aminospiro[3.3]heptan-2-yl)amino)-6-methylpyridin-2-yl)-2,6-dimethylpiperazin-1-yl)-2,2,2-trifluoroethan-1-one], 7.00 to 10.00.
Still for that read-out and setting: for `CCC1CCN(c2ccc(NC[C@H]3CC[C@H](N)CC3)c(C)c2)CC1` [Compound 389, N-(((1r,4r)-4-aminocyclohexyl)methyl)-4-(4-ethylpiperidin-1-yl)-2-methylaniline] the value was 7.00 to 10.00; for `CCc1cc(NC2CCC(N)CC2)ccc1C(C)(C)C` (stereo not drawn) [Compound 329, 1-N-(4-(tert-butyl)-3-ethylphenyl)cyclohexane-1,4-diamine], 7.00 to 10.00.
Regarding `CCC(C)(C)c1ccc(NC2CCC(C)(N)CC2)cc1` (stereo not drawn) [Compound 172, 1-methyl-N4-(4-(tert-pentyl)phenyl)cyclohexane-1,4-diamine], the pEC50 was 7.00 to 10.00.
Still for that read-out and setting: for `CC1(C)CCC(c2ccc(NC3CCC(CO)CC3)cc2)CC1` (stereo not drawn) [Compound 90] the value was 7.00 to 10.00.
Same read-out and setting: for `CC1CN(c2ccc(NC[C@H]3CC[C@H](N)CC3)cc2Cl)CC(C)O1` (stereo partly drawn) [Compound 438, N-(((1r,4r)-4-aminocyclohexyl)methyl)-3-chloro-4-(2,6-dimethylmorpholino)aniline] the value was 7.00 to 10.00; for `CC(C)C1CCN(c2ncc(NC3CC(N)C3)cn2)CC1` (stereo not drawn) [Compound 28, N1-(2-(4-isopropylpiperidin-1-yl)pyrimidin-5-yl)cyclobutane-1,3-diamine], 7.00 to 10.00; for `CCCCOc1ccc(NC2CCC(N)CC2)cc1` (single isomer, unassigned) [Compound 142A, N1-(4-butoxyphenyl)cyclohexane-1,4-diamine], 7.00 to 10.00.
Same read-out and setting: for `Cc1ccc(NC2CCC(CN)CC2)cc1C` (stereo not drawn) [Compound 282, N-(4-(aminomethyl)cyclohexyl)-3,4-dimethylaniline] the value was 6.00 to 7.00; for `CC(C)Nc1ccc(N2CCC(C(F)(F)F)CC2)cc1` [Compound 7, N-isopropyl-4-(4-(trifluoromethyl)piperidin-1-yl)aniline], 7.00 to 10.00.
In the case of `CC1(C)CCC(c2ccc(NC3CCC(N)CC3)cc2)CC1` (single isomer, unassigned) [Compound 120A, N1-(4-(4,4-dimethylcyclohexyl)phenyl)cyclohexane-1,4-diamine], the pEC50 was 7.00 to 10.00.
Same read-out and setting: for `COCCOc1cc(NC2CCC(N)CC2)ccc1N1CCC(C(F)(F)F)CC1` (stereo not drawn) [Compound 473, N1-(3-(2-methoxyethoxy)-4-(4-(trifluoromethyl)piperidin-1-yl)phenyl)cyclohexane-1,4-diamine] the value was 7.00 to 10.00; for `CCOCCCc1ccc(N[C@H]2CC[C@H](N)CC2)cc1` [Compound 293, (1r,4r)-N1-(4-(3-ethoxypropyl)phenyl)cyclohexane-1,4-diamine], 6.00 to 7.00; for `Cc1nc(C2CCC(C)(C)CC2)ccc1NC1CCC(CN)CC1` (stereo not drawn) [Compound 80, N-(4-(aminomethyl)cyclohexyl)-6-(4,4-dimethylcyclohexyl)-2-methylpyridin-3-amine], 6.00 to 7.00.
Still for that read-out and setting: for `CC(C)(C)c1ccc(NC2CCC(CCCN)CC2)cc1` (stereo not drawn) [Compound 287, N-(4-(3-aminopropyl)cyclohexyl)-4-(tert-butyl)aniline] the value was 7.00 to 10.00; for `NC1CCC(Nc2ccc(C3CCCCC3)cc2)CC1` (stereo not drawn) [Compound 122, N1-(4-cyclohexylphenyl)cyclohexane-1,4-diamine], 7.00 to 10.00; for `CC(C)(C)c1ccc(NC2CCCCC2N)cc1` (stereo not drawn) [Compound 152, N1-(4-(tert-butyl)phenyl)cyclohexane-1,2-diamine], 6.00 to 7.00.
Same read-out and setting: for `CC(=O)NC1CCC(Nc2ccc(C(C)(C)C)cc2)CC1` (single isomer, unassigned) [Compound 216A, N-(4-((4-(tert-butyl)phenyl)amino)cyclohexyl)acetamide] the value was 6.00 to 7.00.
As for `Cc1nc(N2CCC(C)CC2)ccc1NC1CCC(CN)CC1` (stereo not drawn) [Compound 26, N-(4-(aminomethyl)cyclohexyl)-2-methyl-6-(4-methylpiperidin-1-yl)pyridin-3-amine], the pEC50 was 7.00 to 10.00.
Take `CC(C)C1CCN(c2cnc(NC3CCC(N)CC3)cn2)CC1` (stereo not drawn) [Compound 399, N1-(5-(4-isopropylpiperidin-1-yl)pyrazin-2-yl)cyclohexane-1,4-diamine]: the pEC50 was 7.00 to 10.00.

The assay is the same for the next values; noted with them: Homo sapiens, HT-1080, 20 h, ferroptosis inducer RSL3, 20 hours, ferroptosis inhibitory activity, Table 3.
The compound `CC[C@@H]1CN(c2ccc(N[C@H]3C[C@@H](N)C3)c(C)n2)C[C@H](C)O1` [Compound 618, (1s,3S)-N1-(6-((2R,6S)-2-ethyl-6-methylmorpholino)-2-methylpyridin-3-yl)cyclobutane-1,3-diamine] showed a pEC50 of 6.00 to 7.00.
The same measure, in the same setting: for `Cc1nc(N2CC(C)N(CC(F)(F)F)C(C)C2)ccc1NC1CC2CCC(C1)N2` (stereo not drawn) [Compound 643, N-(6-(3,5-dimethyl-4-(2,2,2-trifluoroethyl)piperazin-1-yl)-2-methylpyridin-3-yl)-8-azabicyclo[3.2.1]octan-3-amine] the value was 7.00 to 10.00; for `Cc1nc(N2C[C@@H](C)O[C@@H](C)C2)ccc1NC1C2CC3CC1CC(CNCCO)(C3)C2` (stereo partly drawn) [Compound 585], 7.00 to 10.00; for `CC1(C)CN(c2ccc3cc(NC4CC5(CC(N)C5)C4)ccc3n2)CC(C)(C)O1` (stereo not drawn) [Compound 646, N2-(2-(2,2,6,6-tetramethylmorpholino)quinolin-6-yl)spiro[3.3]heptane-2,6-diamine], 7.00 to 10.00.
On the same count and under the same terms, for `CCc1cc(N2C[C@@H](C)O[C@@H](C)C2)ccc1NC1CC2(CC(N)C2)C1` (stereo partly drawn) [Compound 640, N2-(4-((25,6R)-2,6-dimethylmorpholino)-2-ethylphenyl)spiro[3.3]heptane-2,6-diamine] the value was 7.00 to 10.00; for `CC(C)c1nc(N2C[C@@H](C)O[C@@H](C)C2)ccc1NC1CC2(CC(N)C2)C1` (stereo partly drawn) [Compound 613, N^2-(6-((2S, 6R)-2,6-dimethylmorpholino)-2-isopropylpyridin-3-yl)spiro[3.3]heptane-2,6-diamine], 7.00 to 10.00.

Still in this assay, the particulars now being: ferroptosis inducer RSL3, 20 hours, ferroptosis inhibitory activity, Table 2.
Consider `NCC1CCC(Nc2ccccc2)CC1` (single isomer, unassigned) [Compound 92A, N-(4-(aminomethyl)cyclohexyl)aniline], for which the pEC50 is 5.00 to 6.00.
